From EPA's ToxValDB 9.5 (doi:10.2903/j.efsa.2012.2917)
Several values for one entry are separate records, joined by “and”; a condition that tells them apart may be missing. Equal values may be shown once.

Columns and labels:
[1] = tested on: Colinus virginianus
[2] = tested on: Rattus norvegicus
[3] = tested on: Anas platyrhynchos; details: short-term; oral; feed; mortality

Cn1cc(C(=O)Nc2ccc(F)cc2-c2ccc(Cl)c(Cl)c2)c(C(F)F)n1 [Bixafen]
LC50 ([1]; acute, oral, diet, mortality): > 1160 mg/kg-day | LD50 ([1]; acute, oral, mortality): > 2000 mg/kg-day | NOEC ([1]; reproduction developmental): 24.5 mg/kg-day and 30 mg/kg-day | LD50 ([2]; acute, oral, mortality): > 5000 mg/kg-day | NOEL ([2]; chronic, body weight): 33.3 mg/kg-day | NOAEL ([2]; chronic, duration: 2 years, organ weight): 2 mg/kg-day | NOAEL ([2]; developmental, development): 20 mg/kg-day | NOAEL ([2]; subchronic, duration: 90 days, oral, organ weight): 12.9 mg/kg-day | LC50 [3]: > 1550 mg/kg-day
